Here are results for seven molecules from patent publication US20230183193A1, “4-DIFLUOROMETHYL BENZOYL AMIDES WITH HERBICIDAL ACTION” (BAYER CROPSCIENCE AKTIENGESELLSCHAFT, priority 2017, published 2023).

Assay type in all cases: in vivo
Test [1] has as its system Amaranthus retroflexus. Kind of test: Pre-emergence herbicidal action, AMARE. The following applies: dosage 320 g/ha, scored visually after 3 weeks vs untreated controls. In short, it runs like this:
(§1)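 Percent herbicidal activity rated by eye 3 weeks after pre-emergence soil-surface application, compared with untreated pots. Seeds sat under sandy loam; sprays carried 0.2% wetting agent.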

The test system of test [2] is Amaranthus retroflexus. Put plainly: Post-emergence herbicidal action, AMARE. The following applies: 80 g/ha, Table D. In short, it runs like this: (§2)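 Visual percent activity relative to untreated controls, assessed about 3 weeks after foliar treatment, where 0% equals control growth and 100% equals death. Compounds, as wettable powders or emulsion concentrates, are sprayed onto one-leaf-stage plants in sandy loam.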

The test system of test [3] is Setaria viridis. Kind of test: Pre-emergence herbicidal action, SETVI. The following applies: dosage 320 g/ha, scored visually after 3 weeks vs untreated controls. An outline of the steps:
as §1

Test [4] deals with Abutilon theophrasti. Kind of test: Pre-emergence herbicidal action, ABUTH. The settings on record: dosage 320 g/ha, scored visually after 3 weeks vs untreated controls. In short, it runs like this: as §1
The test system of a further test is Cyperus serotinus. Put plainly: Pre-emergence herbicidal action, CYPES. The settings on record: dosage 320 g/ha, scored visually after 3 weeks vs untreated controls. In short, it runs like this:
as §1

Test [5] has as its system Viola tricolor. Kind of test: Post-emergence herbicidal action, VIOTR. The settings on record: 80 g/ha, Table D. An outline of the steps: as §2
The subject of test [6] is Alopecurus myosuroides. Kind of test: Pre-emergence herbicidal action, ALOMY. The settings on record: dosage 320 g/ha, scored visually after 3 weeks vs untreated controls. An outline of the steps: as §1
Test [7] deals with Stellaria media. Put plainly: Post-emergence herbicidal action, STEME. The following applies: 80 g/ha, Table D. In short, it runs like this: as §2
Test [8] concerns Stellaria media. Kind of test: Pre-emergence herbicidal action, STEME. The following applies: dosage 320 g/ha, scored visually after 3 weeks vs untreated controls. In short, it runs like this:
as §1

The subject of test [9] is Avena fatua. Kind of test: Pre-emergence herbicidal action, AVEFA. The following applies: dosage 320 g/ha, scored visually after 3 weeks vs untreated controls. In short, it runs like this: as §1
Test [10] relates to Setaria viridis. Put plainly: Post-emergence herbicidal action, SETVI. The settings on record: 80 g/ha, Table C. In short, it runs like this:
as §2

Test [11] relates to Viola tricolor. Put plainly: Pre-emergence herbicidal action, VIOTR. The following applies: dosage 320 g/ha, scored visually after 3 weeks vs untreated controls. In short, it runs like this: as §1
Another test concerns ECHCG. Kind of test: Post-emergence herbicidal action, ECHCG. The settings on record: 80 g/ha, Table C. An outline of the steps:
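Weed and crop plants grown in sandy loam in the greenhouse, treated at the one-leaf stage 2–3 weeks after sowing. Damage scored visually after about 3 weeks vs untreated controls (0% = control, 100% = dead).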

The next test concerns Matricaria inodora. Put plainly: Pre-emergence herbicidal action, MATIN. The settings on record: dosage 320 g/ha, scored visually after 3 weeks vs untreated controls. In short, it runs like this: as §1
The subject of test [12] is Abutilon theophrasti. Put plainly: Post-emergence herbicidal action, ABUTH. The settings on record: 80 g/ha, Table D. In short, it runs like this:
as §2

Test [13] relates to Avena fatua. Kind of test: Post-emergence herbicidal action, AVEFA. The settings on record: 80 g/ha, Table C. In short, it runs like this:
as §2

Another test concerns Pharbitis purpureum. Put plainly: Post-emergence herbicidal action, PHBPU. The settings on record: 80 g/ha, Table D. An outline of the steps:
as §2

The subject of test [14] is Alopecurus myosuroides. Put plainly: Post-emergence herbicidal action, ALOMY. The following applies: 80 g/ha, Table C. In short, it runs like this:
as §2

`CCSc1c(C(F)F)ccc(C(=O)Nc2nnnn2C)c1C1CC1` [Example 1-28]: the “herbicidal activity AMARE” value in the test on Amaranthus retroflexus [1] and in the test with Amaranthus retroflexus [2] was 100% each time. The “herbicidal activity SETVI” value with Setaria viridis [3] and in the test with Setaria viridis [10] was 100% in each case. For the same molecule, the “herbicidal activity ABUTH” value with Abutilon theophrasti [4] and with Abutilon theophrasti [12] was 100% throughout. Moreover, the “herbicidal activity CYPES” value in the test on Cyperus serotinus stood at 100%. In addition, the “herbicidal activity VIOTR” value with Viola tricolor [5] and with Viola tricolor [11] was 100% in each case. Also, the results for the “herbicidal activity ALOMY” value with Alopecurus myosuroides [6] and in the test with Alopecurus myosuroides [14] were 100% and 90%, respectively. Further, the “Herbicidal activity STEME” value with Stellaria media [7] and in the test with Stellaria media [8] was 100% in each case. For the same molecule, the “herbicidal activity AVEFA” value with Avena fatua [9] and with Avena fatua [13] was 100% in each case. In the test on ECHCG, the “Herbicidal activity ECHCG” value was determined as 100%. Besides, the “herbicidal activity MATIN” value in the test on Matricaria inodora was 100%. Besides, in the test on Pharbitis purpureum, the “Herbicidal activity PHBPU” value was 100%.

On to `CC[S+]([O-])c1c(C(F)F)ccc(C(=O)Nc2nnnn2C)c1C1CC1` (stereo not drawn) [Example 1-29], for which the “herbicidal activity AMARE” value in the test on Amaranthus retroflexus [1] and in the test on Amaranthus retroflexus [2] was 100% in each case. Besides, the “herbicidal activity SETVI” value in the test with Setaria viridis [3] and in the test on Setaria viridis [10] was 100% each time. For the same molecule, the “herbicidal activity ABUTH” value in the test on Abutilon theophrasti [4] and in the test on Abutilon theophrasti [12] was 100% in each case. For the same molecule, the “herbicidal activity CYPES” value in the test with Cyperus serotinus was found to be 100%. For the same molecule, the “herbicidal activity VIOTR” value with Viola tricolor [5] and in the test with Viola tricolor [11] was 100% throughout. In addition, the “herbicidal activity ALOMY” value with Alopecurus myosuroides [6] and with Alopecurus myosuroides [14] was 100% in each case. The “Herbicidal activity STEME” value in the test on Stellaria media [7] and in the test with Stellaria media [8] was 100% each time. Besides, the “herbicidal activity AVEFA” value is 100% in the test with Avena fatua [9] and 90% in the test with Avena fatua [13]. The “Herbicidal activity ECHCG” value in the test with ECHCG is 100%. Further, the “herbicidal activity MATIN” value in the test on Matricaria inodora is reported as 100%. In addition, the “Herbicidal activity PHBPU” value in the test on Pharbitis purpureum stood at 100%.

As for `CCS(=O)(=O)c1c(C(F)F)ccc(C(=O)Nc2nnnn2C)c1C1CC1` [Example 1-30], the entries for the “herbicidal activity AMARE” value with Amaranthus retroflexus [1] and in the test on Amaranthus retroflexus [2] were 100% and 90%, respectively. For the same molecule, the “herbicidal activity SETVI” value with Setaria viridis [3] and with Setaria viridis [10] was 100% in each case. The “herbicidal activity ABUTH” value in the test on Abutilon theophrasti [4] and in the test on Abutilon theophrasti [12] was 100% throughout. The “herbicidal activity CYPES” value in the test with Cyperus serotinus is reported as 90%. Moreover, the “herbicidal activity VIOTR” value in the test on Viola tricolor [5] and in the test on Viola tricolor [11] was 100% each time. The “herbicidal activity ALOMY” value in the test with Alopecurus myosuroides [6] and in the test on Alopecurus myosuroides [14] was 100% throughout. In addition, the “Herbicidal activity STEME” value in the test with Stellaria media [7] and in the test with Stellaria media [8] was 100% throughout. Also, the “herbicidal activity AVEFA” value with Avena fatua [9] and in the test on Avena fatua [13] was 100% throughout. Moreover, the “Herbicidal activity ECHCG” value in the test on ECHCG turned out to be 100%. In addition, the “herbicidal activity MATIN” value with Matricaria inodora is 100%. Further, the “Herbicidal activity PHBPU” value in the test on Pharbitis purpureum worked out at 90%.

Consider `CSc1c(C(F)F)ccc(C(=O)Nc2nnnn2C)c1F` [Example 1-37], for which the “herbicidal activity AMARE” value in the test with Amaranthus retroflexus [1] and in the test on Amaranthus retroflexus [2] was 100% in each case. The “herbicidal activity SETVI” value in the test with Setaria viridis [3] and in the test on Setaria viridis [10] was 100% in each case. The entries for the “herbicidal activity ABUTH” value in the test on Abutilon theophrasti [4] and in the test with Abutilon theophrasti [12] were 100% and 90%, respectively. Further, the “herbicidal activity CYPES” value in the test on Cyperus serotinus is on record as 100%. Further, the “herbicidal activity VIOTR” value in the test on Viola tricolor [5] and with Viola tricolor [11] was 100% each time. For the same molecule, the “herbicidal activity ALOMY” value in the test with Alopecurus myosuroides [6] is given as 100%; in the test on Alopecurus myosuroides [14], 80%. The “Herbicidal activity STEME” value in the test with Stellaria media [7] and with Stellaria media [8] was 100% in each case. Moreover, the “herbicidal activity AVEFA” value in the test with Avena fatua [9] and with Avena fatua [13] was 100% each time. Further, the “Herbicidal activity ECHCG” value with ECHCG came to 100%. For the same molecule, the “herbicidal activity MATIN” value in the test with Matricaria inodora stood at 100%. For the same molecule, the “Herbicidal activity PHBPU” value in the test on Pharbitis purpureum was 90%.

On to `Cn1nnnc1NC(=O)c1ccc(C(F)F)c([S+](C)[O-])c1F` (stereo not drawn) [Example 1-38], for which the “herbicidal activity AMARE” value in the test on Amaranthus retroflexus [1] is 100%; with Amaranthus retroflexus [2] it was 90%. The “herbicidal activity SETVI” value in the test with Setaria viridis [3] and in the test with Setaria viridis [10] was 100% each time. Further, the “herbicidal activity ABUTH” value in the test with Abutilon theophrasti [4] and in the test with Abutilon theophrasti [12] was 100% each time. In addition, in the test on Cyperus serotinus, the “herbicidal activity CYPES” value is reported as 90%. The “herbicidal activity VIOTR” value in the test with Viola tricolor [5] and with Viola tricolor [11] was 100% throughout. Also, the “herbicidal activity ALOMY” value in the test with Alopecurus myosuroides [6] is reported as 100%; in the test on Alopecurus myosuroides [14], 90%. Further, the “Herbicidal activity STEME” value in the test on Stellaria media [7] and with Stellaria media [8] was 100% in each case. Also, the “herbicidal activity AVEFA” value in the test with Avena fatua [9] worked out at 100%; in the test with Avena fatua [13] it was 90%. The “Herbicidal activity ECHCG” value in the test with ECHCG was found to be 100%. In addition, the “herbicidal activity MATIN” value in the test with Matricaria inodora turned out to be 100%. Further, in the test on Pharbitis purpureum, the “Herbicidal activity PHBPU” value was determined as 90%.

As for `Cn1nnnc1NC(=O)c1ccc(C(F)F)c(S(C)(=O)=O)c1F` [Example 1-39], the “herbicidal activity AMARE” value in the test with Amaranthus retroflexus [1] and with Amaranthus retroflexus [2] was 100% in each case. In addition, the “herbicidal activity SETVI” value with Setaria viridis [3] and with Setaria viridis [10] was 100% throughout. The entries for the “herbicidal activity ABUTH” value in the test with Abutilon theophrasti [4] and in the test with Abutilon theophrasti [12] were 100% and 90%, respectively. For the same molecule, in the test on Cyperus serotinus, the “herbicidal activity CYPES” value was determined as 90%. Besides, the “herbicidal activity VIOTR” value in the test on Viola tricolor [5] and in the test with Viola tricolor [11] was 100% in each case. The “herbicidal activity ALOMY” value with Alopecurus myosuroides [6] and in the test with Alopecurus myosuroides [14] was 90% throughout. The “Herbicidal activity STEME” value with Stellaria media [7] and with Stellaria media [8] was 100% in each case. The “herbicidal activity AVEFA” value came out at 100% in the test with Avena fatua [9] and 80% in the test on Avena fatua [13]. Also, in the test on ECHCG, the “Herbicidal activity ECHCG” value was 90%. The “herbicidal activity MATIN” value in the test with Matricaria inodora amounted to 100%. The “Herbicidal activity PHBPU” value with Pharbitis purpureum amounted to 100%.

Consider `CCSc1c(C(F)F)ccc(C(=O)Nc2nnnn2C)c1F` [Example 1-40], for which the “herbicidal activity AMARE” value in the test on Amaranthus retroflexus [1] and in the test on Amaranthus retroflexus [2] was 100% in each case. Moreover, the “herbicidal activity SETVI” value with Setaria viridis [3] and in the test on Setaria viridis [10] was 100% throughout. In addition, the “herbicidal activity ABUTH” value with Abutilon theophrasti [4] and in the test on Abutilon theophrasti [12] was 100% in each case. Moreover, the “herbicidal activity CYPES” value in the test on Cyperus serotinus is reported as 100%. Moreover, the “herbicidal activity VIOTR” value with Viola tricolor [5] worked out at 90%; in the test with Viola tricolor [11], 100%. Besides, the “herbicidal activity ALOMY” value in the test with Alopecurus myosuroides [6] was 100%; with Alopecurus myosuroides [14], 90%. In addition, the “Herbicidal activity STEME” value in the test with Stellaria media [7] came out at 90%; in the test with Stellaria media [8] it was 100%. In addition, the “herbicidal activity AVEFA” value in the test with Avena fatua [9] is reported as 90%; in the test on Avena fatua [13] it was 80%. Moreover, the “Herbicidal activity ECHCG” value in the test with ECHCG is on record as 100%. For the same molecule, in the test with Matricaria inodora, the “herbicidal activity MATIN” value worked out at 100%. The “Herbicidal activity PHBPU” value in the test on Pharbitis purpureum is reported as 100%.
